Drawing on patent publication US6756377B2, “Compounds and their use” (Biovitrum AB, priority 2000, dated 2004), this text covers body weight, Ki and food intake for five compounds.

Where two headings read alike, the source gives them in different places.

For assay [1] the following is noted: cited from earlier work.
Assay [2] deals with T1, human 5-HT2c receptor protein (Homo sapiens, UniProt P28335).
T1 construct: expressed in transfected cells; host or cells: HEK293 (membranes)
T1 sequence (P28335 33-458): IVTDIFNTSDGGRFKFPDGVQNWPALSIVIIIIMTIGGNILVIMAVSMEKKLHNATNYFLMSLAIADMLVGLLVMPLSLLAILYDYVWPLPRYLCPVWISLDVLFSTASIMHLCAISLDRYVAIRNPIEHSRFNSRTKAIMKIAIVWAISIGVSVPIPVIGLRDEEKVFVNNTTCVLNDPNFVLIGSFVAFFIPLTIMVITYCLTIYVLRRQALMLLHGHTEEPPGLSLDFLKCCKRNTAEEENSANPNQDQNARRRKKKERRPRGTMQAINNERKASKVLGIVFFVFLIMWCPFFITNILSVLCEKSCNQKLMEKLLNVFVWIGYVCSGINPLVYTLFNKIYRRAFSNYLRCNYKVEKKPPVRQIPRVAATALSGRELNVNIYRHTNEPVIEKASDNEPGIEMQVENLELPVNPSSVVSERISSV
The experiment in a line: 5-HT2c receptor affinity assay (displacement of 3H-labelled 5-HT, Scintillation Proximity Assay). The conditions noted are these: membranes of transfected HEK293 cells; 3H-5-HT displacement; non-specific binding 5 μM mianserin. Here is the method: The 5-HT2c receptor affinity of compounds in the Examples was determined in competition experiments, where the ability of each compound in serial dilution to displace ^3H-labelled 5-HT, bound to membranes prepared from a transfected HEK293 cell line stably expressing the human 5-HT2c receptor protein, was monitored by Scintillation Proximity Assay technology. Non-specific binding was defined using 5 μM mianserin. Typically, the 5HT2c receptor affinity values (Ki, nM) were in the range of 1 nM to 1500 nM, preferably 1 nM to 100 nM.
On the technique in general: In a radioligand displacement assay an active substance lowers the binding of a labelled ligand.

Assay [3] addresses T2, 5-HT2c receptor (Mus musculus, UniProt P34968).
T2 construct: mice that express the normal 5-HT2c receptor; host or cells: mice (in vivo)
T2 sequence (P34968 33-459): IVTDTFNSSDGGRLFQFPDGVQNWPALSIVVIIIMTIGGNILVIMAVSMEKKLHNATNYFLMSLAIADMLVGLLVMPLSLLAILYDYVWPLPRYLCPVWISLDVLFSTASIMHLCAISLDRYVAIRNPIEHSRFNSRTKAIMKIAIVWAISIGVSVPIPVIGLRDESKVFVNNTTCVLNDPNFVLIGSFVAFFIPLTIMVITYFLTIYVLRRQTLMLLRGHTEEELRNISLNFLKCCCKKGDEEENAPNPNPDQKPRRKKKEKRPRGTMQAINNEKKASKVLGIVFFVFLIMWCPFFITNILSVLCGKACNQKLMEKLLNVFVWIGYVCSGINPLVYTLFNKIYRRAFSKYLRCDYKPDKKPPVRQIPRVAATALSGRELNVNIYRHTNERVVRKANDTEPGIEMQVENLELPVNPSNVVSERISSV
The conditions noted are these: mice that express the normal 5-HT2c receptor; cited from earlier work.

Assay [4] relates to 5-HT2c receptor. The conditions noted are these: mice expressing the mutated inactive form of the 5-HT2c receptor; cited from earlier work.

With `CCN[C@@H](C)Cc1cccc(C(F)(F)F)c1` [dexfenflurarnine], the body weight result in assay [1] (controlled clinical studies) is reported as “weight reduction”.
As usually defined, the Ki is the equilibrium dissociation constant of an inhibitor or competing ligand from its target. Low readings indicate higher affinity, high ones lower affinity. `c1cc(CN2CCOCC2)cc(OCCOc2nccnc2N2CCNCC2)c1` [Example 1, 2-(1-Piperazinyl)-3-{2-[3-(4-morpholinylmethyl)phenoxy]ethoxy}pyrazine]: the Ki in assay [2] is 18 nM.
Turning to `CNCCC(Oc1ccc(C(F)(F)F)cc1)c1ccccc1` (stereo not shown) [fluoxetine], in assay [1] (controlled clinical studies), the body weight result is recorded as “weight reduction”.
`Clc1cccc(N2CCNCC2)c1` [mCPP, m-chlorophenylpiperazine]: the body weight entry in assay [1] (obese subjects, after 2 weeks of treatment) is recorded as “slight but sustained reduction in body weight”. In addition, the food intake result in assay [3] is on record as “reduces food intake”; in assay [4], “lacks activity”.
In turn, `CC(C)NCc1cccc(OCCOc2nccnc2N2CCNCC2)c1` [Example 5, 2-(1-Piperazinyl)-3-{2-[3-{(isopropylamino)methyl}phenoxy]ethoxy}pyrazine] had a Ki in assay [2] of 3 nM.
